Experimental data published in patent US20260256756A1, “USE OF PIPERIDINE ALKENE COMPOUND IN PREPARATION OF DRUG FOR TREATING CANCER” (JIANGSU HANSOH PHARMACEUTICAL GROUP CO., LTD., priority 2023, published 2026).

Test system: human pancreatic cancer cell line Capan-1 xenograft tumor
Experiment: Subcutaneous xenograft tumor model of human pancreatic cancer cell line Capan-1
Assay type: in vivo, BALB/c nude mice
Conditions: Capan-1, 100 mg/kg oral once/day
Source text: • 1. Experimental objective: To evaluate the in vivo efficacy of compound 1 in a subcutaneous xenograft tumor model of human pancreatic cancer cell line Capan-1 in nude mice. • 2. Reagent • IMDM medium (30-2005, ATCC) and fetal bovine serum (FBS) (35-081-CV, Corning) • DPBS (21-031-CVR, Corning) and Matrigel (354234, Corning) • HPMC (H02J10D78204, Shanghai Yuanye Bio-Technology Co., Ltd.) • Trypsin-EDTA (25200-072, Gibco), penicillin and streptomycin (MA0110, Dalian Meilun Biotechnology Co., Ltd.) • 3. Experimental operations and data processing • 3.1 Animals: • BALB/c nude mice, 6-8 weeks old, female, purchased from Jiangsu GemPharmatech Co., Ltd. • 3.2 Cell culture and cell suspension preparation • a. A vial of Capan-1 cells was taken from a cell bank, the cells were thawed with IMDM medium (IMDM+20% FBS), and the thawed cells were placed in a cell culture flask (with the cell type, date, the name of the culture operator, etc., being marked on the wall of the flask), which were placed in a CO2 incubator for culturing (wherein the temperature of the incubator was 37° C., and the CO2 concentration was 5%). • b. The cells were passaged once a week, and after passage, the cells were placed in the CO2 incubator to continue the culture. This process was repeated until the cell number met the requirements for in vivo efficacy. • c. The cultured cells were collected, counted using a full-automatic cell counter, and resuspended with PBS on the basis of the counting results to prepare a cell suspension (at a density of 5×10^7/mL). An equal volume of Matrigel was added to the cell suspension, and the resulting mixture was mixed uniformly and then placed in an ice box for later use. • 3.3 Cell inoculation • a. Before inoculation, the nude mice were marked with disposable universal ear tags for mice and rats. • b. At the time of inoculation, the cell suspension was mixed uniformly, 0.2-1 mL of the cell suspension was aspirated using a 1 mL syringe with air bubbles expelled, and the syringe was then placed on an ice bag for later use. • c. […] Tumor was measured on days 4-7 after inoculation depending on the tumor growth, and the tumor size was calculated.
tumor volume (mm^3)=length (mm)×width (mm)×width (mm)/2 Tumor volume calculation: • b. […] The tumor inhibitory efficacy of the compound was evaluated by TGI (%) and ΔT/ΔC (%). ΔT/ΔC (%)=(T−T0)/(C−C0)×100, where T and C are the tumor volumes of the treatment group and the vehicle control group at the end of the experiment, respectively, and T0 and C0 are the tumor volumes of the treatment group and the vehicle control group at the beginning of the experiment, respectively. […]

## O=C(c1cc(Cc2n[nH]c(=O)c3ccccc23)ccc1F)N1CCN(C(=O)C2CC2)CC1 [Olaparib]
Day 0
  Tumor volume (Mean ± SEM): 164 ± 13 mm^3
Day 28
  T/C: 86.27%
  TGI: 14.39%
  Tumor volume (Mean ± SEM): 724 ± 82 mm^3
